Entries after “also recorded” stand apart in the source; their conditions may differ. Structures can show the parent of a compound that is named as a salt.

In general, Emax refers to the maximal effect, on the per cent scale that the assay sets.

The subject of experiment [1] is scopolamine-induced cognitive impairment (rat Morris water maze). Description: rat Morris water maze model, scopolamine-induced cognitive impairment. Particulars: for effect on ability of rats to learn platform location when administered alone: no scopolamine; for effect on scopolamine-induced memory impairment: 0.03 mg/kg plus scopolamine 0.5 mg/kg; for reversal of scopolamine-induced cognitive impairment with coadministered 5-HT4 antagonist: compound 0.1 mg/kg i.p. plus GR125487 1 mg/kg i.p. and scopolamine 0.5 mg/kg. Type of experiment: in vivo. How it is done:
Adult, male Sprague-Dawley rats (body weight range 275-400 g) were handled by the investigator for approximately 5 minutes one day prior to each study. […] A clear Perspex® platform was located in a fixed position 1 cm below the surface of the water, and 34 cm from the wall of the tank. Four visual cues (A4-sized pictures of different black and white symbols) were equally spaced on the wall of the tank, just above the water surface. Black curtains were placed around the tank and white noise was generated throughout the test. Each rat was released into the water, facing the tank wall, at a designated starting point (i.e., at the north side of the tank), and allowed 60 seconds to locate the submerged platform after each placement. The escape latency (in seconds) between release of the rat into the water and its locating the platform was recorded automatically by means of a video camera (San Diego Instrument, CA) and tracking software (SMART software, San Diego Instrument, CA). […] The rats were allowed to remain on the platform for 30 seconds to observe the external visual cues and pair them with the relative position of the platform. The rats were then taken off the platform and dried gently with a paper towel before repeating the test three more times (from south, then east and finally west starting positions). After the fourth test, each rat was placed under a heating lamp for 5 minutes before being returned to its home cage. The entire procedure was repeated on days 2 and 3. Over the three days of testing, rats learned to associate the location of the submerged platform (and their only means to escape the water) with the visual cues. […] The number of crossings of the previous platform location and the time spent by the rat in each quadrant were recorded. Animals that had learned the location of the platform spent more time in the appropriate quadrant and repeatedly crossed that quadrant. By performing the probe test, false positives could be excluded from the analysis (i.e., rats that had previously located the platform via a strategy independent of the visual cues, such as swimming randomly until a leg hit the platform). No animals were excluded based on conflicting data between the three days of testing and the probe test. […] The following statistical tests were performed on the data: […] A two-way repeated-measures ANOVA, followed by a Bonferroni post-hoc test, was used to compare the mean escape latency for each of the three successive test days, with p<0.05 indicating a statistically significant difference. […] Pat. […] Pat. […] Donepezil hydrochloride was purchased from Changzhou Dahua Imp. and Exp. Corp. Ltd. […] Louis, Mo.) or Spectrum Chemical Mfg. Corp. (Gardena, Calif.). GR125487 sulfamate was purchased from Tocris (Ellisville, Mo.). […] Doses were expressed with respect to the free base weights of each compound.

Another experiment addresses human 5-HT4(d) receptor (Homo sapiens, UniProt Q13639). Description: cell-based. Here is the method: HEK-293 (human embryonic kidney) cells stably-transfected with human 5-HT4(d) receptor cDNA and human APP695 cDNA (HEK293-5-HT4(d)-APP695) were grown in Dulbecco's Modified Eagles Medium (DMEM) containing D-glucose supplemented with 10% fetal bovine serum, 2 mM GlutaMax-1, and 100 units penicillin (100 μg), and 100 μg/mL streptomycin in a 5% CO2, humidified incubator at 37° C. Cells were grown under continuous selection pressure by the addition of G418 (500 ug/mL) antibiotic.
HEK293-5-HT4(d)-APP695 cells (3×10^5 cells/well) were serum-starved for 4 hr prior to incubation with agonists for 30 min (unless otherwise stated) at 37° C. The culture medium was aspirated, centrifuged to remove cellular debris and the level of sAPPα determined by Western blot. sAPPα was detected using antibody 6E10 (Signet/Covance) and a goat anti-mouse HRP-conjugated 2° antibody. Immunoreactive bands corresponding to sAPPα were visualized and quantified with ECL substrate (Pierce) and a Fluor Chem HD2 image system (Alpha Innotech). Western blot analysis of samples was conducted in duplicate.
Potency data are reported as pEC50 values, the negative decadic logarithm of the EC50 value, where EC50 is the effective concentration for a 50% maximal response. […] To determine EC50 values, data from independent experiments were fit simultaneously to a sigmoidal concentration response curve using Graph Pad Prism software (slope constrained to unity).

[2] abbreviates: 0.01 mg/kg plus scopolamine 0.5 mg/kg.
[3] abbreviates: 0.1 mg/kg plus scopolamine 0.5 mg/kg.
[4] abbreviates: 1 mg/kg plus scopolamine 0.5 mg/kg.

Chain of human 5-HT4(d) receptor (Q13639 1-360 isoform Q13639-3): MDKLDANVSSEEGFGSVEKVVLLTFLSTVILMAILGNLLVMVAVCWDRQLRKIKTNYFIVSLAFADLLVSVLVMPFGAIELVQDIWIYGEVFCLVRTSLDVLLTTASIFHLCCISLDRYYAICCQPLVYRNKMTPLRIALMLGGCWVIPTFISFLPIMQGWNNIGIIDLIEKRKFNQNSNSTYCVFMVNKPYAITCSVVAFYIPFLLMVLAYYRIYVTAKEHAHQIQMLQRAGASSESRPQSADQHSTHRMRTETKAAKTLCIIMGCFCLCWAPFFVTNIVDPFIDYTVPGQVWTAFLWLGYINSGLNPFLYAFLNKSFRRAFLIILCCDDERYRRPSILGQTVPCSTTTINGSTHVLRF

As to `COc1cc2c(cc1OC)C(=O)C(CC1CCN(Cc3ccccc3)CC1)C2` (stereo not shown) [donepezil, donepezil hydrochloride, reference compound], in experiment [1] (0.1 mg/kg plus scopolamine 0.5 mg/kg, hydrochloride), the “effect on scopolamine-induced cognitive decline when administered alone” value is on record as “Neither compound 1 at a dose of 0.01 mg/kg nor donepezil at a dose of 0.1 mg/kg were found to have a significant effect; also recorded: Neither compound 2 at a dose of 0.01 mg/kg nor donepezil at a dose of 0.1 mg/kg were found to have a significant effect”. The “reversal of scopolamine-induced cognitive deficit, mean escape latency day 3” value is reported as “statistically significant reversal” in experiment [1] (3 mg/kg i.p. plus scopolamine 0.5 mg/kg) and “dose-dependent manner” in experiment [1] (0.3-3 mg/kg i.p. plus scopolamine 0.5 mg/kg i.p.). For the same compound, the “effect on ability of rats to learn platform location when administered alone” value (shortened to “effect on ability of rats”) in experiment [1] (3 mg/kg i.p.) is reported as “had no effect”.

Regarding `COC(=O)N1CCC(CN2CCC(CNC(=O)c3cccc4[nH]c(C(C)C)nc34)CC2)CC1` [Compound 2, 4-(4-{[(2-isopropyl-1H-benzoimidazole-4-carbonyl)amino]methyl}-piperidin-1-ylmethyl)piperidine-1-carboxylic acid methyl ester], in experiment [1] (setting [2]), the “effect on scopolamine-induced cognitive decline when administered alone” value is reported as “Neither compound 2 at a dose of 0.01 mg/kg nor donepezil at a dose of 0.1 mg/kg were found to have a significant effect”. Besides, in experiment [1], the “effect on scopolamine-induced memory impairment” value is “attenuated the memory impairment” and the “reversal of scopolamine-induced cognitive impairment with coadministered 5-HT4 antagonist” value is listed as “abolished”. For the same compound, the “effect on scopolamine-induced memory impairment, mean escape latency day 3” value (“effect … mean escape latency day 3” for short) in experiment [1] (setting [3]) is given as “achieved statistical significance”. Further, in experiment [1] (1 mg/kg i.p.), the “effect on ability of rats” value is “had no effect”. The “effect … mean escape latency day 3” value in experiment [1] (setting [4]) is “had no effect”. Moreover, the “effect of antagonist GR113808 on compound-evoked sAPPα release” value at human 5-HT4(d) receptor (10 min 1 μM GR113808 before compound at 100 nM) is reported as “completely blocked”. In addition, the “sAPPα release, concentration dependence” value on human 5-HT4(d) receptor (HEK293 cells with human 5-HT4(d) receptors and human APP695) is “concentration-dependent increase”. For the same compound, the maximal response (Emax) on human 5-HT4(d) receptor (read-out: Emax (% response relative to 1 μM 5-HT)) amounted to 103%.

For the compound `COc1[nH]c2ccc(F)cc2c1C(=O)OCC1CCN(CCNS(C)(=O)=O)CC1` [GR125487, reference compound], the “effect in Morris water maze when administered alone” value in experiment [1] (GR125487 1 mg/kg i.p. alone) is on record as “had no effect”.

As for `CN1[C@@H]2C[C@@H](OC(=O)[C@H](CO)c3ccccc3)C[C@H]1[C@@H]1O[C@@H]12` [Scopolamine, scopolamine hydrochloride, reference compound], the “attenuation of learning versus vehicle” value in experiment [1] (0.5 mg/kg i.p., p<0.025) is given as “statistically significant attenuation of learning”.

Consider `CC(C)n1c(=O)c(C(=O)N[C@H]2C[C@H]3CC[C@@H](C2)N3C[C@@H](O)CN(C)S(C)(=O)=O)cc2ccccc21` [Compound 1, 1-isopropyl-2-oxo-1,2-dihydroquinoline-3-carboxylic acid {(1S,3R,5R)-8-[(R)-2-hydroxy-3-(methanesulfonyl-methyl-amino)propyl]-8-azabicyclo[3.2.1]oct-3-yl}amide], for which the “effect on scopolamine-induced cognitive decline when administered alone” value in experiment [1] (setting [2]) is “Neither compound 1 at a dose of 0.01 mg/kg nor donepezil at a dose of 0.1 mg/kg were found to have a significant effect”. Further, the “effect on scopolamine-induced memory impairment” value in experiment [1] is “attenuated the memory impairment”. For the same compound, the “effect … mean escape latency day 3” value in experiment [1] (setting [3]) was “achieved statistical significance”; in experiment [1] (setting [4]), “attenuated the memory impairment”; in experiment [1] (1 mg/kg plus scopolamine 0.5 mg/kg, listed as compound 1), “had no effect”. The “effect on ability of rats” value in experiment [1] (1 mg/kg i.p.) is reported as “had no effect”. Also, the “reversal of scopolamine-induced cognitive impairment with coadministered 5-HT4 antagonist” value in experiment [1] was “abolished”.
